Test [1] concerns the target hROMK (hKir1.1) (Homo sapiens (Human), UniProt P48048). The test can be described thus: Thallium Flux Assay (ROMK channel functional thallium flux, FLIPR-Tetra). It is filed as cell-based. Particulars: HEK293 cells stably expressing hROMK (hKir1.1). The method, then:
HEK293 cells stably expressing hROMK (hKir1.1) were grown at 37° C. in a 10% CO2 humidified incubator in complete growth media: Dulbecco's Modified Eagle Medium supplemented with non-essential amino acids, Penicillin/Streptomycin/Glutamine, G418 and FBS. At >80% confluency, aspirate the media from the flask and rinse with 10 mL Calcium/Magnesium-free PBS. Add 5 mL of 1× trypsin (prepared in Ca/Mg Free PBS) to T-225 flask and return flask to 37° C./CO2 incubator for 2-3 minutes. To dislodge the cell, gently bang the side of the flask with your hand. Triturate the cells completely and then transfer the cells to 25 mL complete media. Centrifuge at 1,500 rpm for 6 min followed by resuspension in complete growth media and determine cell concentration. For typical re-seeding, 4E6 cells/T-225 flask will attain>80% confluency in 4 days. Under ideal growth conditions and appropriate tissue culture practices, this cell line is stable for 40-45 passages.
• FluxOR™ Reagent (Component A) • FluxOR™ Assay Buffer (Component B)—10× Concentrate • PowerLoad™ Concentrate (Component C)—100× Concentrate • Probenecid (Component D)—Lyophilized sample is kept at −20° C. Water soluble, 100× after solubilization in 1 mL water. Store at 4° C. • FluxOR™ Chloride-free Buffer (Component E)—5× Concentrate • Potassium sulfate (K2SO4) Concentrate (Component F)—125 mM in water. Store at 4° C. • Thallium sulfate (Tl2SO4) Concentrate (Component G)—50 mM in water. Store at 4° C. • DMSO (dimethyl sulfoxide, Component H)—1 mL (100%) Reagent Preparation: FluxOR Working Solutions • 1000× FluxOR™ Reagent: Reconstitute a vial of component A in 100 μl DMSO; Mix well; Store 10 μl aliquots at −20° C. • 1× FluxOR™ Assay Buffer: Dilute Component B 10-fold with water; Adjust pH to 7.4 with Hepes/NaOH; Filter and store at 4° C. • Probenecid/Assay Buffer: 100 mL of 1× FluxOR™ Assay Buffer; 1 mL of reconstituted component D; Store at 4° C. • Loading Buffer (per microplate): 10 μl 1000× FluxOR™ Reagent; 100 μl component C; 10 mL Probenecid/Assay Buffer • Compound Buffer (per microplate): 20 mL Probenecid/Assay Buffer; 0.3 mM ouabain (10 mM ouabain in water can be stored in amber bottle/aluminum foil at room temperature); Test compound • 1× FluxOR™ Chloride-Free Buffer: Prepare 1× working solution in water. Can be stored at room temperature • Stimulant Buffer (prepared at 5× final concentration in 1× FluxOR™ Chloride-Free Buffer): 7.5 mM Thallium sulfate and 0.75 mM Potassium sulfate (to give a final assay concentration of 3 mM Thallium/0.3 mM Potassium). Store at 4° C. when not in use. If kept sterile, this solution is good for months. Assay Protocol—
The ROMK channel functional thallium flux assay is performed in 384 wells, using the FLIPR-Tetra instrument. HEK-hKir1.1 cells are seeded in Poly-D-Lysine microplates and kept in a 37° C.-10% CO2 incubator overnight. On the day of the experiment, the growth media is replaced with the FluxOR™ reagent loading buffer and incubated, protected from light, at ambient temperature (23-25° C.) for 90 min. The loading buffer is replaced with assay buffer±test compound followed by 30 min incubation at ambient temperature, where the Thallium/Potassium stimulant is added to the microplate.
• 1. Seed HEK-hKir1.1 cells (50 μl at 20,000 cells/well) in 384-well PDL coated Microplates • 2. Allow cells to adhere overnight in humidified 37° C./10% CO2 incubator • 3. Completely remove cell growth media from microplate and replace with 25 μl loading buffer • 4. Incubate Microplate at room temperature, protected form light, for 90 min • 5. Remove loading buffer and replace with 25 μl 1× Assay Buffer±test compound. • 6. Incubate microplate at room temperature, protected form light, for 30 min • 7. At FLIPR-Tetra 384: Add stimulant (Thallium/Potassium) solution to microplate and monitor fluorescence. Excitation=400 nm, Emission=460 & 580 nm. Collect data for ˜10 min. Data Calculation—

Test [2] deals with Kir1.1 (ROMK1) (Homo sapiens (Human), UniProt P48048). In words: Electrophysiology Assay (whole cell voltage clamp, IonWorks Quattro). Conditions: Chinese hamster ovary cells stably expressing Kir1.1; block during voltage step to 0 mV. It is filed as cell-based. The method, then:
Block of Kir1.1 (ROMK1) currents was examined by whole cell voltage clamp (Hamill et. al. […] Prior to an experiment, Kir1.1 expression was induced by overnight incubation with 1 mM sodium butyrate. […] After centrifugation, the cell pellet was resuspended in approximately 4.0 mL of bath solution and placed in the IonWorks instrument. The intracellular solution consisted of (in mM): 80 K gluconate, 40 KCl, 20 KF, 3.2 MgCl2, 3 EGTA, 5 Hepes, pH 7.4. […] Amphotericin B (Sigma A-4888) was prepared as a 40 mg/mL solution in DMSO. Voltage protocols and current recordings were performed using the IonWorks HT software/hardware system. […] No correction for liquid junction potentials was used. The test pulse, consisting of a 100 ms step to 0 mV from a holding potential of −70 mV, followed by a 100 ms voltage ramp from −70 mV to +70 mV, was applied before and after a 6 min compound incubation period. Test compounds were prepared by diluting DMSO stock solutions into the bath solution at 3× the final concentration and placed in the instrument in 96-well polypropylene plates. Current amplitudes were measured using the IonWorks software. To assess compound potency, the fractional block during the voltage step to 0 mV was calculated in Microsoft Excel (Microsoft, Redmond, Calif.), and dose-response curves were fitted with Igor Pro 4.0 (WaveMetrics, Lake Oswego, Oreg.).

Kir1.1 (ROMK1), sequence (P48048 whole entry): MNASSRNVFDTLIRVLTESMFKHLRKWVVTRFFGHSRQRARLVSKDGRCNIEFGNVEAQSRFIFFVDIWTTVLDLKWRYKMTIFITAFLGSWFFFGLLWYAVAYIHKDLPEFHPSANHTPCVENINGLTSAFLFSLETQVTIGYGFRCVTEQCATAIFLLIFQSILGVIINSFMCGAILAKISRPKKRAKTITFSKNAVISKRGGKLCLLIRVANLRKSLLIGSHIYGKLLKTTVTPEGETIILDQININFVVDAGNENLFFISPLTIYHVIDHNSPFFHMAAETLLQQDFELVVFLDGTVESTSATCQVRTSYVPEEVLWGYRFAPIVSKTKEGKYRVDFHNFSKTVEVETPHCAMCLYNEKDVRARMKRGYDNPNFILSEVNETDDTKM
hROMK (hKir1.1), sequence (P48048 whole entry): as above

For `Cc1c([C@@H]2CN3CCN(C(=O)C4CCc5nc(-n6cnnn6)ccc54)C[C@H]3CO2)csc1C#N` (stereo partly shown) [Example 15], the IC50 turned out to be 540 nM in test [1] and 60 nM in test [2].
The matching figures for `N#Cc1c(F)ccc([C@@H]2CN3CCN(C(=O)C4CCc5nc(-n6cnnn6)ccc54)C[C@H]3CO2)c1F` (stereo partly shown) [Example 18]: 400 nM and 110 nM.
In the case of `N#Cc1c(F)ccc([C@H]2CN3CCN(C(=O)C4CCc5nc(-n6cnnn6)ccc54)C[C@H]3CO2)c1F` (stereo partly shown) [Example 19], the results for the IC50 in test [1] and in test [2] were 420 nM and 90 nM, respectively.
Take `N#Cc1c(F)ccc([C@@H]2CN3CCN(C(=O)C4CCc5nc(-n6cnnn6)ccc54)C[C@@H]3CO2)c1F` (stereo partly shown) [Example 20]: the IC50 in test [1] turned out to be 230 nM; in test [2], 80 nM.
For `N#Cc1c(F)ccc([C@H]2CN3CCN(C(=O)C4CCc5nc(-n6cnnn6)ccc54)C[C@@H]3CO2)c1F` (stereo partly shown) [Example 21] the same measures were 240 nM and 80 nM.
Consider `N#Cc1c(F)ccc([C@@H]2CN3CCN(C(=O)C4CCc5cc(-n6cnnn6)ncc54)C[C@H]3CO2)c1F` (stereo partly shown) [Example 22], for which the figures for the IC50 in test [1] and in test [2] were 160 nM and 40 nM, respectively.
The matching figures for `N#Cc1c(F)ccc([C@H]2CN3CCN(C(=O)C4CCc5cc(-n6cnnn6)ncc54)C[C@@H]3CO2)c1F` (stereo partly shown) [Example 23]: 540 nM and 150 nM.
As to `N#Cc1c(F)ccc([C@@H]2CN3CCN(C(=O)C4CCc5cc(-n6cnnn6)ncc54)C[C@@H]3CO2)c1F` (stereo partly shown) [Example 24], the half-maximal inhibitory concentration (IC50) came to 110 nM in test [1] and 200 nM in test [2].
The matching figures for `N#Cc1c(F)ccc([C@H]2CN3CCN(C(=O)C4CCc5cc(-n6cnnn6)ncc54)C[C@H]3CO2)c1F` (stereo partly shown) [Example 25]: 100 nM and 60 nM.
Consider `N#Cc1c(F)ccc([C@@H]2CN3CCN(C(=O)C4CCc5nc(-n6cnnn6)ccc54)C[C@H]3CO2)c1Cl` (stereo partly shown) [Example 26], for which the IC50 came to 220 nM in test [1] and 110 nM in test [2].
The matching figures for `N#Cc1c(F)ccc([C@@H]2CN3CCN(C(=O)C4CCc5nc(-n6cnnn6)ccc54)C[C@H]3CO2)c1Cl` (stereo partly shown) [Example 27]: 230 nM and 120 nM.
The matching figures for `N#Cc1c(F)ccc([C@H]2CN3CCN(C(=O)C4CCc5nc(-n6cnnn6)ccc54)C[C@H]3CO2)c1Cl` (stereo partly shown) [Example 28]: 220 nM and 120 nM.
The matching figures for `N#Cc1c(F)ccc([C@H]2CN3CCN(C(=O)C4CCc5nc(-n6cnnn6)ccc54)C[C@H]3CO2)c1Cl` (stereo partly shown) [Example 29]: 450 nM and 140 nM.
For the compound `N#Cc1c(F)ccc([C@H]2CN3CCN(C(=O)C4CCc5nc(-n6cnnn6)ccc54)C[C@@H]3CO2)c1Cl` (stereo partly shown) [Example 30], the IC50 in test [1] came out at 290 nM; in test [2] it was 190 nM.
For `N#Cc1c(F)ccc([C@@H]2CN3CCN(C(=O)C4CCc5cc(-n6cnnn6)ncc54)C[C@H]3CO2)c1Cl` (stereo partly shown) [Example 31] the same measures were 110 nM and 80 nM.
The matching figures for `N#Cc1c(F)ccc([C@H]2CN3CCN(C(=O)C4CCc5cc(-n6cnnn6)ncc54)C[C@H]3CO2)c1Cl` (stereo partly shown) [Example 32]: 130 nM and 70 nM.
With `Cc1c([C@H]2CN3CCN(C(=O)C4CCc5nc(-n6cnnn6)ccc54)C[C@@H]3CO2)ccc(F)c1C#N` (stereo partly shown) [Example 34], the IC50 was determined as 120 nM in test [1] and 160 nM in test [2].
The matching figures for `Cc1c([C@H]2CN3CCN(C(=O)C4CCc5cc(-n6cnnn6)ncc54)C[C@H]3CO2)ccc(F)c1C#N` (stereo partly shown) [Example 36]: 660 nM and 140 nM.
The matching figures for `Cc1c([C@@H]2CN3CCN(C(=O)C4CCc5cc(-n6cnnn6)cnc54)C[C@H]3CO2)ccc(F)c1C#N` (stereo partly shown) [Example 37]: 810 nM and 240 nM.
`Cc1c([C@@H]2CN3CCN(C(=O)C4CCc5cc(-n6cnnn6)cnc54)C[C@H]3CO2)ccc(F)c1C#N` (stereo partly shown) [Example 38]: the figures for the IC50 in test [1] and in test [2] were 900 nM and 280 nM, respectively.
For `Cc1c([C@H]2CN3CCN(C(=O)C4CCc5cc(-n6cnnn6)cnc54)C[C@@H]3CO2)ccc(F)c1C#N` (stereo partly shown) [Example 39] the same measures were 600 nM and 390 nM.
Regarding `Cc1c([C@H]2CN3CCN(C(=O)C4CCc5cc(-n6cnnn6)ncc54)C[C@@H]3CO2)ccc(F)c1C#N` (stereo partly shown) [Example 40], the IC50 in test [1] is 270 nM; in test [2], 120 nM.
As for `Cc1c([C@H]2CN3CCN(C(=O)C4CCc5cc(-n6cnnn6)ncc54)C[C@@H]3CO2)ccc(F)c1C#N` (stereo partly shown) [Example 41], the IC50 came out at 720 nM in test [1] and 110 nM in test [2].
For `Cc1c([C@@H]2CN3CCN(C(=O)C4CCc5cc(-n6cnnn6)ncc54)C[C@@H]3CO2)ccc(F)c1C#N` (stereo partly shown) [Example 42] the same measures were 350 nM and 130 nM.
For `Cc1c([C@@H]2CN3CCN(C(=O)C4CCc5cc(-n6cnnn6)ncc54)C[C@@H]3CO2)ccc(F)c1C#N` (stereo partly shown) [Example 43] the same measures were 850 nM and 130 nM.
The matching figures for `Cc1c([C@@H]2CN3CCN(C(=O)C4CCc5cc(-n6cnnn6)ncc54)C[C@H]3CO2)ccc(F)c1C#N` (stereo partly shown) [Example 44]: 170 nM and 170 nM.
Consider `O=C1OCCc2cc([C@@H]3CN4CCN(C(=O)C5CCc6cc(-n7cnnn7)ncc65)C[C@H]4CO3)ccc21` (stereo partly shown) [Example 45], for which the IC50 in test [1] amounted to 600 nM; in test [2], 220 nM.
For the compound `COc1cc([C@H]2CN3CCN(C(=O)C4CCc5nc(-n6cnnn6)ccc54)C[C@H]3CO2)ccc1C#N` (stereo partly shown) [Example 51], the IC50 in test [1] stood at 580 nM; in test [2], 190 nM.
As for `COc1c([C@@H]2CN3CCN(C(=O)C4CCc5cc(-n6cnnn6)ncc54)C[C@H]3CO2)ccc(F)c1C#N` (stereo partly shown) [Example 52], the IC50 stood at 420 nM in test [1] and 220 nM in test [2].

One may read the IC50 as the concentration at which inhibition is half-maximal.

The values above are taken from patent publication US9062070B2, “Inhibitors of the renal outer medullary potassium channel” (Merck Sharp & Dohme Corp., priority 2011, dated 2015).
